Measurements taken from patent US20030211168A1, “Drug carrier pellet production process” (priority 2000, published 2003).
Counter-ions that a name gives are not always drawn.

Experiments:
[1] = Particle size of active drug substance; assay type: physicochemical; conditions: drug substance raw material
[2] = Solubility of active drug substances in water; assay type: physicochemical

Particle size [1] [μm]	solubility [2] [mg/mL]	Compound
<10		NS(=O)(=O)c1cc(C(=O)O)c(NCc2ccco2)cc1Cl [Furosemide]
	> 100	COc1ccc([C@@H]2Sc3ccccc3N(CCN(C)C)C(=O)[C@@H]2OC(C)=O)cc1 [Diltiazem hydrochloride]
